Laboratory results: patent publication EP3570868B1, “[…] ANTIMICROBIAL PEPTIDES AND THEIR APPLICATIONS FOR THE TREATMENT AND PREVENTION OF MUSCU[…]” (Ustav Organicke Chemie a Biochemie AV CR, v.v.i., priority 2017, dated 2018)
Square brackets hold non-standard residues; d marks the D form. Peptide text beside a SMILES is read from it. Met(O) = CS(=O)CC[C@H](N)C(=O)O; βAla = NCCC(=O)O

How the values were obtained:
[1] = tested on: human red blood cells; test: Determination of haemolytic activity; type: cell-based; conditions: human red blood cells (5% v/v), 1 h at 37 °C; concentration for lysis of 50% of erythrocytes
Experimental: The peptides in the concentrations 2-400 µmol.1^-1 were incubated with the suspension of human red blood cells (5% v/v) for 1 h at 37 °C in a physiological solution at a final volume of 0.2 ml. The samples were then centrifuged for 5 min at 250 g. The absorbance of the supernatant was determined at 540 nm. 0.2% (v/v) TRITON X100 was used as a control for 100% haemolysis. Haemolytic activity is expressed as the peptide concentration required for lysis of 50% of human erythrocytes in the assay (LC50). Table 2. Antimicrobial and haemolytic activity of I up to XIII peptides and tetracycline.

[2] = tested on: S. epidermidis (clin. isolate Motol); test: Induced osteomyelitis model in femur heads: effect of peptides released from carrier on infection in the bone graft; type: cell-based; conditions: 10 mg, two days
Experimental: (§1) 3-4 holes of a diameter of 5 mm and a depth of 10 mm are drilled with a surgical spoon into a femur head under sterile conditions (spongy part of the bone in the resection site). Thereafter, this bone graft is put into a beaker of appropriate size and lined with sterile gauze squares. The gauze is moistened with sterile physiological saline to prevent drying of the bone. Then, suspension of multiplied microbes in an appropriate medium (50-100 µl) at a concentration of 10^7 to 10^9 CFU is sequentially applied to the prepared holes in the bone graft and allowed to incubate for 1-2 days. […] Beaker with the infected bone graft is covered with a sterile Petri dish. During the experiment, induced osteomyelitis models are kept protected from light at room temperature.
(§2) After the incubation, the infected holes in the bone are filled with a mixture of the local carrier, and a peptide selected from the series of peptides of formulae I to XIII or their specific enantiomers (Figure 1). For comparison, one of the holes is filled with the local carrier without peptide, or the carrier filled with antibiotic (vancomycin or gentamicin). A commercially available two-component material supplied by Synthes (Synthes GmbH, Switzerland) under the name ChronOS Inject was used as the carrier. Its solid component comprises a mixture of calcium phosphates CaHPO4.2H2O and Ca3(PO4)2 and additives, the liquid component is 0.5% (vol./vol.) solution of hyaluronic acid.
(§3) After two days, the filling is thoroughly removed with a surgical spoon and empty holes are wiped with moistened sterile cotton swab, which is then extracted into 400 µl physiological saline. The extract is diluted in a tenfold serial dilution and each diluted suspension is cultured on agar in Petri dishes; the culture is evaluated on the following day. […] The result of the peptide effect is also compared with the result of the effect of antibiotics. In some cases, microbiological examination of the bone tissue taken with a surgical spoon from a deeper area of the drilled holes is performed. […] Table 3. Evaluation of the effect of antimicrobial peptides released from the carrier on an infection in the bone graft. Effect of antimicrobial activity is expressed in the number of CFU (colony-forming units) in the infected hole after swabbing.

[3] = tested on: S. aureus (clin. isolate Liberec); test: as above; type: cell-based; conditions: ChronOS (200 mg); 10 mg; two days; carrier without peptide 1,4x10^7
Experimental: as §1, §2, §3

[4] = tested on: Bacillus subtilis; type: cell-based; conditions: B.s.; 37° C for 20 h
Experimental: (§4) Gram-positive bacteria (Bacillus subtilis, Staphylococcus aureus, Staphylococcus epidermidis and Enterococcus faecalis), Gram-negative bacteria (Escherichia coli and Pseudomonas aeruginosa) and the yeast (Candida albicans) were grown to exponential phase and then were diluted with fresh medium. BHI medium (Oxoid, Great Britain) was used for Enterococcus faecalis; YPD medium containing yeast extract, peptone and glucose was used for Candida albicans and LB medium (Sigma, Czech Republic) was used for the remaining microorganisms. Then the microorganisms were added to the solutions of the tested antimicrobial peptides in LB medium in multi-well plates, so that the final peptide concentration it the wells was in the range of 0.5 to 100 µmοl.1^-1. The plates were incubated at 37° C for 20 h while being continuously shaken in a Bioscreen C (Oy Growth Curves AB Ltd., Helsinki, Finland). Absorbance was measured at 540 nm every 15 min. Antimicrobial activity (Table 2) was determined as a quantitative minimum inhibitory concentration (MIC) by observing bacterial growth in the presence of different concentrations of tested peptides. In the experiments, ca 10^5 CFU of bacteria or candida per well were used. Tetracycline in a concentration range of 0.5 - 100 µmol.1^-1 was used as a standard.
(§5) Clinical isolates of bacteria were obtained from University Hospital in Motol, Prague, Czech Republic and from Liberec Regional Hospital, Czech Republic. Methicillin resistant Staphylococcus aureus (MRSA) 6271 and Pseudomonas aeruginosa 5482 were from the Czech National Collection of Type Cultures, the National Institute of Public Health, Prague, Czech Republic. Other bacteria were from the Czech Collection of Microorganisms, Brno, Czech Republic. Candida albicans came from the Faculty of Medicine, Palacky University, Olomouc, Czech Republic. Candida tropicalis ATCC 750 and Candida glabrata DSY 565 were obtained from the Institute of Physiology, Academy of Sciences of the Czech Republic.

[5] = tested on: Candida albicans; type: cell-based; conditions: C.a.; 37° C for 20 h
Experimental: as §4, §5

[6] = tested on: Escherichia coli; type: cell-based; conditions: E.c.; 37° C for 20 h
Experimental: as §4, §5

[7] = tested on: MRSA (clin. isolate Liberec); type: cell-based, Staphylococcus aureus; conditions: 37° C for 20 h
Experimental: as §4, §5

[8] = tested on: MRSA (clin. isolate Motol); type: cell-based, Staphylococcus aureus; conditions: 37° C for 20 h
Experimental: as §4, §5

[9] = tested on: MRSA 6271; type: cell-based, Staphylococcus aureus; conditions: 37° C for 20 h
Experimental: as §4, §5

[10] = tested on: S.e. (clin. isolate Motol); type: cell-based, Staphylococcus epidermidis; conditions: 37° C for 20 h
Experimental: as §4, §5

[11] = tested on: E.f. (clin. isolate Motol); type: cell-based, Enterococcus faecalis; conditions: 37° C for 20 h
Experimental: as §4, §5

[12] = tested on: P.a. (clin. isolate Liberec); type: cell-based, Pseudomonas aeruginosa; conditions: 37° C for 20 h
Experimental: as §4, §5

[13] = tested on: P.a. 5482; type: cell-based, Pseudomonas aeruginosa; conditions: 37° C for 20 h
Experimental: as §4, §5

[14] = tested on: MRSA 6271; test: Biofilm formation on the surface of a bone cement implant in femur heads; type: cell-based, Staphylococcus aureus; conditions: two days, cement without peptide 6.0x10^4
Experimental: The resulting elastic paste is placed into a 2 ml plastic syringe (without needle) and pressed into the infected holes in the spongy part of the bone, where it polymerizes and hardens. For comparison, other similarly infected holes are filled with cement containing only an antibiotic or antimycotic agent. For comparison, a Vancogenx® cement (Tecresa S. p. A., Italy) is used, made from a mixture of a powdered polymer component containing vancomycin and gentamicin. The mixture in an amount of 125 mg is mixed with liquid monomer (50-60 µl) and then pressed into the openings as described above. In another embodiment, the cements are applied to uninfected holes, allowed to harden, and then microbes are pipetted into the hole excavated between implants. From there they penetrate through bone tissue and settle on the implants with consequent formation of biofilms.
After two days, implants are removed with metal spikes and tweezers, mechanically cleaned from debris of bone tissue, and washed four times with physiological saline (0.5 ml) in plastic tubes to remove any residual planktonic microbes or bone cells from their surface. The implants in closed tubes with 0.4 ml saline are then sonicated four times for 3 min with occasional shaking. The of microbial biofilm on the surface of the implant is thus disrupted and microbes are loosed into the physiological saline. The resulting suspension is subsequently diluted using the tenfold serial dilution for culturing on agar.
Evaluation of the effect of antimicrobial peptides on the formation of microbial biofilm on the surface of the implant made of the bone cement.

SMILES | Hemolytic activity LC50 [1] | CFU/hole ([2]; ChronOS (300 mg), separate holes, carrier without peptide 1,2x10^5) | CFU/hole [3] | Antimicrobial activity MIC [4] | Antimicrobial activity MIC [5] | Antimicrobial activity MIC [6] | Antimicrobial activity MIC [7] | Antimicrobial activity MIC [8] | Antimicrobial activity MIC [9] | Antimicrobial activity MIC [10] | Antimicrobial activity MIC [11] | Antimicrobial activity MIC [12] | Antimicrobial activity MIC [13] | CFU/implant [14] | CFU/hole ([2]; ChronOS (200 mg), carrier without peptide 7,2x10^4)
CC[C@@H](C)[C@@H](NC(=O)[C@@H](CCCCN)NC(=O)[C@@H](CCCCN)NC(=O)[C@@H](CC(C)C)NC(=O)[C@@H](CC(C)C)NC(=O)[C@@H](CCCCN)NC(=O)[C@H](NC(=O)[C@@H](Cc1c[nH]c2ccccc12)NC(=O)[C@@H](CCCCN)NC(=O)CN)C(C)C)C(=O)N[C@H](CC(C)C)C(=O)N[C@H](CCCCN)C(N)=O [IX] (H-G[dK][dW][dV][dK][dL][dL][dK][dK][dI][dL][dK]-NH2) | >400 µM | 0 in all cases CFU/hole |  |  |  |  |  |  |  |  |  |  |  |  | 
CC[C@@H](C)[C@@H](NC(=O)[C@@H](CCCCN)NC(=O)[C@@H](CCCCN)NC(=O)[C@@H](CC(C)C)NC(=O)[C@@H](CC(C)C)NC(=O)[C@@H](CCCCN)NC(=O)[C@@H](CCSC)NC(=O)[C@@H](Cc1c[nH]c2ccccc12)NC(=O)[C@H](N)CCCCN)C(=O)N[C@H](CC(C)C)C(=O)N[C@H](CCCCN)C(N)=O [II] (H-[dK][dW][dM][dK][dL][dL][dK][dK][dI][dL][dK]-NH2) | >400 µM |  | 1,8 x10^4 CFU/hole |  |  |  |  |  |  |  |  |  |  |  | 
CC[C@@H](C)[C@@H](NC(=O)[C@@H](CCCCN)NC(=O)[C@@H](CCCCN)NC(=O)[C@@H](CC(C)C)NC(=O)[C@@H](CC(C)C)NC(=O)[C@@H](CCCCN)NC(=O)[C@@H](CCSC)NC(=O)[C@@H](Cc1c[nH]c2ccccc12)NC(=O)[C@@H](CCCCN)NC(=O)CN)C(=O)N[C@H](CC(C)C)C(=O)N[C@H](CCCCN)C(N)=O [IV] | >400 µM |  |  | 1,4 µmol.l^-1 | 5,7 µmol.l^-1 | 3,0 µmol.l^-1 | 5,3 µmol.l^-1 | 9,7 µmol.l^-1 | 11,3 µmol.l^-1 | 2,0 µmol.l^-1 | 12,7 µmol.l^-1 | 12,5 µmol.l^-1 | 4,5 µmol.l^-1 |  | 
CC[C@@H](C)[C@@H](NC(=O)[C@@H](CCCCN)NC(=O)[C@@H](CCCCN)NC(=O)[C@@H](CC(C)C)NC(=O)[C@@H](CC(C)C)NC(=O)[C@@H](CCCCN)NC(=O)[C@@H](CCSC)NC(=O)[C@@H](Cc1c[nH]c2ccccc12)NC(=O)[C@@H](CCCCN)NC(=O)CCN)C(=O)N[C@H](CC(C)C)C(=O)N[C@H](CCCCN)C(N)=O [Peptide VI] (H-[βAla][dK][dW][dM][dK][dL][dL][dK][dK][dI][dL][dK]-NH2) | >400 µM |  |  |  |  |  |  |  |  |  |  |  |  |  | 
CC[C@H](C)[C@H](NC(=O)[C@H](CCCCN)NC(=O)[C@H](CCCCN)NC(=O)[C@H](CC(C)C)NC(=O)[C@H](CC(C)C)NC(=O)[C@H](CCCCN)NC(=O)[C@H](CCCCN)NC(=O)[C@H](Cc1c[nH]c2ccccc12)NC(=O)[C@H](CCCCN)NC(=O)CN)C(=O)N[C@@H](CC(C)C)C(=O)N[C@@H](CCCCN)C(N)=O [X] (H-GKWKKLLKKILK-NH2) | >400 µM |  |  | 2,4 µmol.l^-1 | 9,5 µmol.l^-1 | 11,5 µmol.l^-1 | 11,5 µmol.l^-1 | 25,3 µmol.l^-1 | 29,7 µmol.l^-1 | 4,7 µmol.l^-1 | >100 µmol/L | 9,5 µmol.l^-1 | 2,9 µmol.l^-1 |  | 
CC[C@H](C)[C@H](NC(=O)[C@H](CCCCN)NC(=O)[C@H](CCCCN)NC(=O)[C@H](CC(C)C)NC(=O)[C@H](CC(C)C)NC(=O)[C@H](CCCCN)NC(=O)[C@H](CC[S+](C)[O-])NC(=O)[C@H](Cc1c[nH]c2ccccc12)NC(=O)[C@H](CCCCN)NC(=O)CN)C(=O)N[C@@H](CC(C)C)C(=O)N[C@@H](CCCCN)C(N)=O (stereo partly drawn) [XII] (H-GKW[Met(O)]KLLKKILK-NH2) | >400 µM |  |  | 2,5 µmol.l^-1 | 21,3 µmol.l^-1 | 26,7 µmol.l^-1 | 11,5 µmol.l^-1 | 25,3 µmol.l^-1 | 64,0 µmol.l^-1 | 5,0 µmol.l^-1 | >100 µmol/L | 22,1 µmol.l^-1 | 5,0 µmol.l^-1 | 0 CFU/implant | 
CC[C@H](C)[C@H](NC(=O)[C@H](CCCCN)NC(=O)[C@H](CCCCN)NC(=O)[C@H](CC(C)C)NC(=O)[C@H](CC(C)C)NC(=O)[C@H](CCCCN)NC(=O)[C@H](CC(C)C)NC(=O)[C@H](Cc1c[nH]c2ccccc12)NC(=O)[C@H](CCCCN)NC(=O)CN)C(=O)N[C@@H](CC(C)C)C(=O)N[C@@H](CCCCN)C(N)=O [Peptide VII] (H-GKWLKLLKKILK-NH2) | 196 µM |  |  | 2,0 µmol.l^-1 | 16,0 µmol.l^-1 | 5,0 µmol.l^-1 | 8,0 µmol.l^-1 | 10,0 µmol.l^-1 | 10,0 µmol.l^-1 | 2,2 µmol.l^-1 | 50,7 µmol.l^-1 | 10,7 µmol.l^-1 | 4,0 µmol.l^-1 |  | 1,2 x10^2 CFU/hole
